Laboratory results: patent US5166379A, “Synthesis of compounds with biological activity, and methods of use” (Harbor Branch Oceanographic Institution, Inc., priority 1990, dated 1992)
In brackets after ≈: the same amount, converted by molar mass. Several values for one entry are separate records, joined by “and”; a condition that tells them apart may be missing. Equal entries are not always repeated. Where two headings read alike, the source gives them in different places.

How the values were obtained:
[1] = tested on: murine splenocyte suspensions (BALB/c and C57BL/6J mice); experiment: Mixed Lymphocyte Reaction (MLR); type: cell-based
Description: I. Mixed Lymphocyte Reaction
1. Murine splenocyte suspensions were prepared separately from BALB/c and C57BL/6J mice. […] The cell concentrations were adjusted to 2.5×10^6 cells/ml. Aliquots of each cell population were removed to separate tubes, and the remaining two cell suspensions combined to one tube.
(§1) 2. Serial, log10 dilutions of the pure compound were made in absolute ethanol, and 10 μl of each dilution was added to wells of microtiter test plates, and allowed to dry.
3. A volume of 0.2 ml of the combined splenocyte suspensions was added to triplicate test wells. Positive control wells received combined splenocyte suspensions in the absence of the test compounds. Negative control wells consisted of separate (not mixed) splenocyte suspensions cultured in the absence of the test compounds.
4. Plates were incubated in 5% CO2 at 37° C. for 86 hours.
5. A volume of 0.05 ml of ^3 H-thymidine (20 μCi/ml) was added to each well, and the plates were incubated in 5% CO2 at 37° C. for an additional 5 hours.
6. The contents of each well of the microtiter plates were harvested onto glass fiber filter strips, and the resulting filter discs placed in scintillation vials to which 2.0 ml of scintillation fluid was added.
7. The amount of incorporated ^3 H-thymidine was determined by counting the vials in a liquid scintillation counter.
8. Triplicate counts were averaged, and the data reported as a percentage of the positive control.

[2] = Lymphocyte Viability Assay (LCV); type: cell-based, murine; conditions: mouse, splenocytes, read-out: % LCV (percentage of positive control)
Description: (§2) II. Lymphocyte Viability Assay
(§3) 1. Compounds were similarly tested in parallel with the MLR to determine their toxic effects on lymphoid cells using the lymphocyte viability assay (LCV).
as §1
(§4) 3. Murine splenocyte suspensions were prepared from BALB/c mice. […] The cell concentrations were adjusted to 2.5×10^6 cells/ml.
(§5) 4. A volume of 0.2 ml of the splenocyte suspension was added to replicate test wells. Positive control wells received splenocyte suspensions in the absence of the test compounds.
(§6) 5. Plates were incubated at 37° C. for 86 hours. At the end of the incubation period, a volume of 75 μl of a 2.0 mg/ml solution of MTT was added to each well, and the plates were returned to the incubator for an additional 5 hours.
(§7) 6. The supernatants from each microwell were then removed, and a volume of 200 μl of isopropanol was added and the contents mixed.
(§8) 7. Values were obtained by comparing the optical densities (determined at 570 and 650 nm) of wells containing the test compounds with those of wells containing cells and medium only (positive control). The results are expressed as a percentage of the positive control.
(§9) 8. Replicate counts were averaged, and the data reported as a percentage of the positive control. An LCV value of less than 60% of the positive control is an indication of cytotoxicity of the test compounds for lymphoid cells.

[3] = tested on: lymphoid cells (murine BALB/c splenocytes); experiment: Lymphocyte Viability Assay (LCV); type: cell-based
Description: as §2, §3, §1, §4, §5, §6, §7, §8, §9

[4] = tested on: graft vs host reaction in CB6F1 mice grafted with BALB/c splenocytes; experiment: Graft vs. Host (GVHR) in vivo activity
Description: III. Graft vs. Host (GVHR) In Vivo Activity
1. Donor mice (BALB/c) were sacrificed, spleens removed, and spleen cell suspensions prepared in tissue culture medium.
2. The above splenocyte suspension was adjusted to 10.0×10^7 cells/ml.
3. Mice were treated with varying dosages of the test compound. […] Treatment consisted of intraperitoneal injections, daily for 7 days. Dosages were calculated on a mg per kg body weight basis.
4. On day 1 of the first treatment regimen, recipient mice (CB6) were injected intraperitoneally with 0.50 ml (50.0×10^6) of the donor (BALB/c) splenocyte suspension.
5. Controls consisted of the following:
POS--mice receiving BALB/c splenocytes (Positive Control)
SYN--mice receiving CB6 splenocytes (Syngeneic Control)
CYP--mice receiving Cyclophosphamide (100 mg/kg) and BALB/c splenocytes
6. At the end of five days, recipient mice were sacrificed, weighed, and spleens removed and weighed.
7. A spleen index of 1.0 was assigned to the mean spleen weights (adjusted to body weight) of the SYN controls. The spleen index of treated mice was determined by comparing the spleen weights of those mice with that of the […]. […] As a general rule, a spleen index of less than the positive control is indicative of an immunosuppressive (ID) compound.
^a CB6F1 mice (5 mice per group) were grafted with 5 ×
10^7 BALB/c spelnocytes, i.p. on Day 0. Groups were injected, ii.p.,
with drug (or vehicle) on Days 1-6. Positive designates grafted mice
receiving vehicle alone.
^b Number of surviving mice at end of experiment.
(Stimulation Index of Syngeneic group (CB6F1 ->CB6F1) = 100

[5] = tested on: P388 cells; experiment: Antiproliferative effects against P388 cells (antitumor, MTT); type: cell-based; conditions: Mus musculus, P388, 48 hour exposure
Description: IV. Antitumor Methodology
To assess the antiproliferative effects against P388 cells, 200 μl cultures (96-well tissue culture plates, Nunc, Denmark) were established at 1×10^5 cells/ml in drug-free medium or medium containing the pure compounds/crude extracts at a final dilution or 1:500 and at various concentrations. Solvent for all dilutions was methanol, which was removed from plates under vacuum. All experimental cultures were initiated in media containing Gentamicin sulfate (50 μg/ml; Schering Corporation, Kenilworth, NJ).
To quantitate the effects of pure compounds/crude extracts on cell proliferation, 75 μl of warm growth medium containing 5 mg/ml MTT was added to each well, cultures were returned to the incubator, and were left undisturbed for 90 minutes. To spectrophotometrically quantitate formation of reduced formazan, plates were centrifuged (900×g, 5 minutes), culture fluids removed by aspiration, and 200 μl of acidified isopropanol (2 ml concentrated HCl/liter isopropanol) added per well. The absorbance of the resulting solutions were measured at 570 nm with a plate reader (MR700 Microplate Reader, Dynatech Laboratories, Chantilly, VA).

[6] = Mus musculus, Splenocyte, 0.05 μg/ml, read-out: % MLR (percentage of positive control)
[7] = Mus musculus, Splenocyte, 0.5 μg/ml, read-out: % MLR (percentage of positive control)
[8] = Mus musculus, Splenocyte, 5.0 μg/ml, read-out: % MLR (percentage of positive control)
[9] = Mus musculus, Splenocyte, 50 μg/ml, read-out: % MLR (percentage of positive control)

| Structure (SMILES) | activity at 0.05 µg/mL [1, 6] | activity at 0.5 µg/mL [1, 7] | activity at 5 µg/mL [1, 8] | activity at 50 µg/mL [1, 9] | viability ([2]; 0.05 μg/ml) | viability ([2]; 0.5 μg/ml) | viability ([2]; 5.0 μg/ml) | viability ([2]; 50 μg/ml) | other results |
| --- | --- | --- | --- | --- | --- | --- | --- | --- | --- |
| C#CC(O)C=CC=CCCCC (centres unmarked) [CH3 (CH2)3 CH=CH--CH=CH--CHOHC≡CH] | 134% | 0% | 0% | 0% | 103% | 72% | 14% | 29% |  |
| C#CC(O)CCCC (centres unmarked) [CH3 (CH2)3 CHOHC≡CH] | 89% | 136% | 47% | 0% | 117% | 116% | 0% | 61% |  |
| CCCCCC=CC(O)C#CCCCCCCCC (centres unmarked) [CH3 (CH2)4 CH=CH--CHOH--C≡C--(CH2)7 CH3] |  |  |  |  |  |  |  |  | % MLR (percentage of positive control) ([1]; 0.05 μg/ml): 127%; % MLR (percentage of positive control) ([1]; 0.2 μg/ml): 135%; % MLR (percentage of positive control) ([1]; 0.8 μg/ml): 122%; % MLR (percentage of positive control) ([1]; 3.1 μg/ml): 64%; % MLR (percentage of positive control) ([1]; 12.5 μg/ml): 0%; % MLR (percentage of positive control) ([1]; 50 μg/ml): 0%; % LCV (percentage of positive control) ([3]; 0.05 μg/ml): 128%; % LCV (percentage of positive control) ([3]; 0.2 μg/ml): 119%; % LCV (percentage of positive control) ([3]; 0.8 μg/ml): 105%; % LCV (percentage of positive control) ([3]; 3.1 μg/ml): 86%; % LCV (percentage of positive control) ([3]; 12.5 μg/ml): 28%; % LCV (percentage of positive control) ([3]; 50 μg/ml): 14% |
| C#CC(O)CCC=CCCCCC (centres unmarked) [CH3 (CH2)4 CH=CHCH2 CH2 CHOHC≡CH] | 137% | 122% | 110% | 50% | 65% | 57% | 45% | 51% | % Suppression ([4]; 50.0 mg/kg, i.p.): 35%; Stim. Index (spleen index) ([4]; 50.0 mg/kg, i.p.): 2.09; % Suppression ([4]; 100 mg/kg, i.p.): 59%; Stim. Index (spleen index) ([4]; 100 mg/kg, i.p.): 1.69; % Suppression ([4]; 150.0 mg/kg, i.p.): 28%; Stim. Index (spleen index) ([4]; 150.0 mg/kg, i.p.): 2.21; % Suppression ([4]; 200 mg/kg, i.p.): 57%; Stim. Index (spleen index) ([4]; 200 mg/kg, i.p.): 1.72; suppression of the GVHR (splenomegaly response), in words ([4]; mouse, in vivo): demonstrated suppressive activity in the GVHR at all dosages tested; toxicity as measured by survival of treated recipients, in words ([4]; mouse, in vivo): no associated toxicity as measured by survival of treated recipients |
| C#CC(O)CCCCCCC (centres unmarked) [CH3 (CH2)6 CHOHC≡CH] | 117% | 130% | 131% | 108% | 72% | 85% | 70% | 61% |  |
| CCCCCCCCCCCCCCCCO [CH3 (CH2)14 CH2 OH] | 136% |  |  | 0% | 70% |  |  | 0% | IC50 [5]: 9.3 µg/mL (≈ 38.4 µM); activity at 0.2 µg/mL ([1]; Mus musculus, Splenocyte, 0.2 μg/ml, read-out: % MLR (percentage of positive control)): 128%; activity at 0.8 µg/mL ([1]; Mus musculus, Splenocyte, 0.8 μg/ml, read-out: % MLR (percentage of positive control)): 127%; activity at 3.1 µg/mL ([1]; Mus musculus, Splenocyte, 3.1 μg/ml, read-out: % MLR (percentage of positive control)): 137%; activity at 12.5 µg/mL ([1]; Mus musculus, Splenocyte, 12.5 μg/ml, read-out: % MLR (percentage of positive control)): 0%; viability ([2]; 0.2 μg/ml): 86%; viability ([2]; 0.8 μg/ml): 37%; viability ([2]; 3.1 μg/ml): 98%; viability ([2]; 12.5 μg/ml): 0% |
| C#CC(O)CCCCCCCCCCCCCCC (centres unmarked) [CH3 (CH2)14 CHOHC≡CH] | 100% | 0% | 0% | 0% | 105% | 47% | 36% | 10% |  |
| C#CC(O)C=CCCCCCCCCCCCCCCCC (centres unmarked) [CH3 (CH2)15 CH=CHCOHC≡CH] |  |  |  |  |  |  |  |  | % MLR (percentage of positive control) ([1]; 0.05 μg/ml): 13%; % MLR (percentage of positive control) ([1]; 0.5 μg/ml): 0%; % MLR (percentage of positive control) ([1]; 5.0 μg/ml): 0%; % MLR (percentage of positive control) ([1]; 50 μg/ml): 0%; % LCV (percentage of positive control) ([3]; 0.05 μg/ml): 78%; % LCV (percentage of positive control) ([3]; 0.5 μg/ml): 78%; % LCV (percentage of positive control) ([3]; 5.0 μg/ml): 17%; % LCV (percentage of positive control) ([3]; 50 μg/ml): 13% |
| C=CC(O)CCCCCCCCCCCCCCCC (centres unmarked) [CH3 (CH2)15 CHOHCH=CH2] | 99% | 74% | 0% | 0% | 80% | 80% | 2% | 5% |  |
| C#CC(O)CCCCCCCCCCCCCCCC (centres unmarked) [CH3 (CH2)15 CHOHC≡CH] | 0% | 0% | 0% | 0% | 49% | 22% | 24% | 22% | % Suppression ([4]; 50.0 mg/kg, i.p.): 49%; % Suppression ([4]; 100 mg/kg, i.p.): 0%; % Suppression ([4]; 150.0 mg/kg, i.p.): 4%; % Suppression ([4]; 200 mg/kg, i.p.): 0%; activity at 0.005 µg/mL ([1]; Mus musculus, Splenocyte, 0.005 μg/ml, read-out: % MLR (percentage of positive control)): 0%; viability ([2]; 0.005 μg/ml): 65% |
| C#CC(=O)CCCCCCCCCCCCCCCC [CH3 (CH2)15 COC≡CH] | 114% | 7% | 0% | 0% | 91% | 89% | 47% | 34% |  |
| O=P1(N(CCCl)CCCl)NCCCO1 (centres unmarked) [Cyclophosphamide, reference compound] |  |  |  |  |  |  |  |  | % Suppression ([4]; 100 mg/kg, i.p.): 160% and 142% and 132%; # Mice (number of surviving mice at end of experiment) ([4]; 100 mg/kg, i.p., 5 mice per group): 5 mice; suppression of the GVHR (splenomegaly response), in words ([4]; mouse, in vivo): displayed the characteristic suppression of the splenomegaly response |
